From paper PMC5218480 (PLoS ONE, 2017)

Test system: MV-4-11 cells
Assay: Gene expression microarray analysis (Affymetrix PrimeView) and GSEA
Type: cell-based, human
Details: ProbeSet 11733176_x_at; LIST B

Nc1ncn([C@@H]2O[C@H](CO)[C@@H](O)[C@H]2O)c(=O)n1 [azacitidine]
RFU, ZNF507: 25.77 RFU
